Data set [1] deals with Lb. fermentum. Nature of the data set: Wheat mash fermentation contaminated with Lb. fermentum. It is filed as cell-based, Lactobacillus fermentum. As to conditions: Example 5, inoculated 10^7 CFU/mL; Penicillin G 0.25 ppm, Virginiamycin 0.5 ppm, hop products at effective concentration. As for the experimental part: The clean breed strains were kept frozen at −101.2° F. in MRS-broth containing 8%-glycerol and were inoculated from there in 10 mL cap tubes containing 2 mL MRS-broth. The headspace of each tube was flushed with filter sterilized (0.45 μm pore size membrane filter) CO2-gas and the caps were sealed with paraffin wax coated film. The tubes were incubated in a controlled environmental shaker at 100 rpm at 86° F. (Lb. brevis) and 96.8° F. (Lb. fermentum). After 12 hours 1 mL of these preparatory cultures were each transferred into 10 mL cap tubes containing 9 mL MRS-broth and incubated for another 24 hours, afterwards transferred to 100 mL screw cap flasks containing 90 mL of MRS-broth and again incubated at the appropriate temperature for 24 hours. These portions were transferred to 1 L screw cap flasks, containing 750 mL MRS-broth and were again incubated for 24 hours.
For inoculation of wheat mash the bacterial cells were aseptically harvested in sterile centrifugal tubes by centrifugation at 10,200×g for 15 minutes at 4° C. […]
Cell numbers of the organisms were estimated using a Beck photometer. […] Appropriate quantities of the concentrated cell suspension were added to 500 g quantities of wheat mash in laboratory fermentation flasks to give initial viable cell numbers of 10^7 CFU/mL. […]

For data set [2] the following is noted: below pH 5; cited from earlier work.
The next data set concerns lactobacillus. As to conditions: stated as fact for comparison with ISOHOP; cited from earlier work.
The test system of the next data set is Lb. brevis. Nature of the data set: Sugar beet molasses wort fermentation contaminated with Lb. brevis. It is filed as cell-based, Lactobacillus brevis. The following applies: 10^6 CFU/mL, Virginiamycin 0.5 ppm. As for the experimental part: (§1) The clean breed strains were kept frozen at −101.2° F. in MRS-broth containing 8%-glycerol and were inoculated from there in 10 mL cap tubes containing 2 mL MRS-broth. The headspace of each tube was flushed with filter sterilized (0.45 μm pore size membrane filter) CO2-gas and the caps were sealed with paraffin wax coated film. The tubes were incubated in a controlled environmental shaker at 100 rpm at 86° F. (Lb. brevis) respectively 96.8° F. (Lb. fermentum). […] A filter sterilized (0.45 μm pore size membrane filter) 5 μl aliquot of the MRS-cell suspension for inoculation was determined by high performance liquid chromatography using a ProntoSIL 120-3-C18 AQ column which analyzes sugars, organic acids and alcohol, making sure glucose in the MRS-medium would be totally consumed and determining the amount of lactic acid an acetic acid added to fresh wort. Appropriate quantities of cell suspension were added to give a total of 500 g mash in laboratory fermentation flasks and initial viable bacterial cell numbers of 10^6 CFU/mL mash. The pH-value of the wort was afterwards readjusted to pH 5.2 if necessary. […]
(§2) The content of sucrose in beet molasses was determined by polarimeter after clarification with lead acetate. […]

The test system of data set [3] is Lb. fermentum. Nature of the data set: Sugar beet molasses wort fermentation contaminated with Lb. fermentum. It is filed as cell-based, Lactobacillus fermentum. The following applies: 10^6 CFU/mL, Virginiamycin 0.5 ppm. As for the experimental part:
as §1, §2

Here are results for two compounds from patent US20040044087A1, “Use of hop acids in fuel ethanol production” (priority 1999, published 2004).

Turning to `CC1(C)S[C@@H]2[C@H](NC(=O)Cc3ccccc3)C(=O)N2[C@H]1C(=O)O` [Penicillin G], the “viable cells after fermentation, Lb. fermentum” value with Lb. fermentum [1] was “practically no effect”. Moreover, in data set [2], the stability result is “rather poor stability”.

Consider Virginiamycin, for which the “reduction of bacteria count” value in the data set with lactobacillus is listed as 50%. Further, the figures for the “viable cells after fermentation, Lb. fermentum” value in the data set with Lb. fermentum [1] and in the data set on Lb. fermentum [3] were 10^3 cells/mL and “no viable cells”, respectively. The “viable cells after fermentation, Lb. brevis” value in the data set on Lb. brevis is “no viable cells”.
